As a reminder, the IC50 is the concentration that gives 50% inhibition.

The structures appear in SMILES notation.

The target in the assay is CBP (Homo sapiens (Human), UniProt Q92793). The assay can be described thus: HTRF biochemical assay for CBP activity (TR-FRET, bromodomain). The note with it: geometric mean, 10-point 3-fold dilution 33 μM to 1.7 nM, read-out: BROMO IC50 TRF TB CBP (μM gmean). The assay is classed as binding. In a few lines: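 Compounds were tested as 10-point, 3-fold dilutions (33 μM to 1.7 nM final) against CBP protein and peptide ligand in pH 7.5 Hepes buffer with GSH, BGG, BSA and Triton X-100 at room temperature for varying times. The TR-FRET 520/490 ratio gave % inhibition versus no-enzyme and DMSO controls, and IC50 came from 4-parameter logistic fits.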
Chain of CBP (Q92793 1085-1192): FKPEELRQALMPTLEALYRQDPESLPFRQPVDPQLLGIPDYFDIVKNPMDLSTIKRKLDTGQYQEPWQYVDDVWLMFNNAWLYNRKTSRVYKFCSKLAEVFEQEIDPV
As to `COC(=O)N1CCc2ccc3c(nc(C4CCCCC4)n3CC[C@@H]3CCCC[C@H]3C(=O)O)c2C1` [Compound 235], the IC50 was 0.01 to 0.1 µM.

As to `COC(=O)N1CCc2ccc3c(nc([C@H]4CC[C@H](C(=O)O)CC4)n3[C@H](C)Cc3c(C)cccc3C)c2C1` [Compound 318], the 50% inhibitory concentration (IC50) fell in the range of 0.1 to 1 µM.

Take `COC(=O)N1CCc2ccc3c(nc(N4CCC(C)(C(=O)O)CC4)n3[C@@H](C)Cc3ccccc3)c2C1` [Compound 75]: the IC50 is 0.001 to 0.01 µM.

As to `COC(=O)N1CCc2ccc3c(nc([C@H]4CC[C@H](C(=O)O)CC4)n3[C@H](C)C[C@]3(C)CC[C@@H](OC)CC3)c2C1` [Compound 267], the concentration for half-maximal inhibition (IC50) is 0.01 to 0.1 µM.

As for `COC(=O)N1CCc2ccc3c(nc(-c4ccc(CC(=O)O)cc4)n3[C@@H](C)Cn3cc(Cl)cn3)c2C1` [Compound 122], the IC50 lay in the range of 0.001 to 0.01 µM.

As to `COC(=O)N1CCc2ccc3c(nc(-c4cccc([C@](C)(O)C(=O)O)c4)n3[C@@H](C)Cc3ccccc3)c2C1` [Compound 184], the half-maximal inhibitory concentration (IC50) is 0.01 to 0.1 µM.

On to `COC(=O)N1CCc2ccc3c(nc(C4CCCCC4)n3CCc3ccccc3C(=O)O)c2C1` [Compound 137], for which the 50% inhibitory concentration (IC50) fell in the range of 0.001 to 0.01 µM.

Take `COC(=O)N1CCc2ccc3c(nc(C4CCCCC4)n3[C@H](CC(=O)O)c3ccccc3)c2C1` [Compound 180]: the half-maximal inhibitory concentration (IC50) is 0.01 to 0.1 µM.

Take `COC(=O)N1CCc2ccc3c(nc(C4CCCC(C(=O)O)C4)n3C[C@H](C)c3ccc(F)c(F)c3)c2C1` (stereo in doubt) [Compound 30, (1S,3S)-3[3-[(2R)-2-(3,4-difluorophenyl)propyl]-8-(methoxycarbonyl)-3H,6H,7H,8H,9H-imidazo[4,5-h]isoquinolin-2-yl]cyclohexane-1-carboxylic acid]: the IC50 lay within 0.001 to 0.01 µM.

For `COC(=O)N1CCc2ccc3c(nc(C4CCN(S(C)(=O)=O)CC4)n3[C@H](C)Cc3ccccc3)c2C1` [Compound 319], the IC50 lay within 0.1 to 1 µM.

Consider `COC(=O)N1CCc2ccc3c(nc([C@H]4CCC[C@@H](C(=O)O)C4)n3[C@H](C)Cc3ccccc3)c2C1` (single isomer, unassigned) [Compound 12], for which the IC50 is 0.001 to 0.01 µM.

For the compound `COC(=O)N1CCc2ccc3c(nc([C@H]4CC[C@H](C(=O)O)CC4)n3[C@@H](C)Cc3ccccc3C)c2C1` [Compound 7], the IC50 fell in the range of 0.001 to 0.01 µM.

Turning to `COC(=O)N1CCc2ccc3c(nc([C@H]4CC[C@H](C(=O)O)CC4)n3Cc3ccc4c(c3)OCC4)c2C1` [Compound 86], the 50% inhibitory concentration (IC50) was in the range of 0.001 to 0.01 µM.

In the case of `COC(=O)N1CCc2ccc3c(nc([C@H]4CC[C@@H](C(=O)O)CC4)n3CCn3cc(Cl)cn3)c2C1` [Compound 291], the IC50 fell in the range of 0.1 to 1 µM.

For `COC(=O)N1CCc2ccc3c(nc(N4CCC(C(=O)O)CC4)n3[C@@H](C)Cc3ccc(F)c(F)c3)c2C1` (single isomer, unassigned) [Compound 23], the half-maximal inhibitory concentration (IC50) was in the range of 0.001 to 0.01 µM.

For the compound `COC(=O)N1CCc2c([C@@H]3CCOC3)cc3c(nc([C@H]4CC[C@H](C(=O)O)CC4)n3[C@@H](C)Cc3ccccc3)c2C1` [Compound 50], the IC50 was 0.001 to 0.01 µM.

In the case of `COC(=O)N1CCc2ccc3c(nc(N4CCN(C(=O)O)CC4)n3[C@H](C)Cc3ccccc3)c2C1` [Compound 54], the IC50 lay within 0.001 to 0.01 µM.

For the compound `COC(=O)N1CCc2ccc3c(nc([C@@H]4CCC[C@@H](C(=O)O)C4)n3Cc3cncc(Cl)n3)c2C1` [Compound 293], the IC50 lay in the range of 0.1 to 1 µM.

As to `COC(=O)N1CCc2ccc3c(nc([C@H]4CC[C@@](C)(C(=O)O)CC4)n3[C@@H](C)Cn3cc(Cl)cn3)c2C1` [Compound 41], the IC50 was in the range of 0.001 to 0.01 µM.

Take `COC(=O)N1CCc2ccc3c(nc([C@H]4CC[C@](C)(C(=O)O)CC4)n3[C@H](C)Cc3ccccc3)c2C1` [Compound 333]: the IC50 was 0.1 to 1 µM.

In the case of `COC(=O)N1CCc2ccc3c(nc(-c4cccc([C@](C)(O)C(=O)O)c4)n3[C@H](C)Cc3ccccc3)c2C1` [Compound 140], the half-maximal inhibitory concentration (IC50) was in the range of 0.001 to 0.01 µM.

On to `COC(=O)N1CCc2ccc3c(nc([C@H]4CC[C@H](C(=O)O)CC4)n3[C@H](C)Cc3ccc(F)c(F)c3)c2C1` [Compound 40], for which the half-maximal inhibitory concentration (IC50) was 0.001 to 0.01 µM.

Turning to `COC(=O)N1CCc2ccc3c(nc(C4CCCCC4)n3CCc3cccc(C(=O)O)c3)c2C1` [Compound 105], the half-inhibitory concentration (IC50) was 0.001 to 0.01 µM.

On to `CNC(=O)N1CCc2ccc3c(nc([C@H]4CC[C@H](C(=O)O)CC4)n3[C@@H](C)Cc3ccccc3)c2C1` [Compound 228], for which the IC50 fell in the range of 0.01 to 0.1 µM.

With `COC(=O)N1CCc2ccc3c(nc([C@H]4CC[C@H](C(=O)O)CC4)n3[C@@H](C)[C@@H](O)c3ccccc3)c2C1` [Compound 92], the half-inhibitory concentration (IC50) is 0.001 to 0.01 µM.

On to `COC(=O)N1CCc2ccc3c(nc(-c4ccc(CC(=O)O)cc4)n3[C@@H](C)Cc3ccccc3)c2C1` [Compound 78], for which the IC50 was in the range of 0.001 to 0.01 µM.

As to `COC(=O)N1CCc2ccc3c(nc(N4CCC(C(=O)O)CC4)n3[C@H](C)Cc3ccccc3)c2C1` (single isomer, unassigned) [Compound 325], the IC50 fell in the range of 0.1 to 1 µM.

As to `COC(=O)N1CCc2ccc3c(nc(N4CCN(S(C)(=O)=O)CC4)n3[C@H](C)Cn3cc(Cl)cn3)c2C1` [Compound 343], the IC50 is 0.1 to 1 µM.

`COC(=O)N1CCc2c([C@H]3CCOC3)cc3c(nc([C@H]4CC[C@H](C(=O)O)CC4)n3[C@H](C)Cc3ccccc3)c2C1` [Compound 201]: the 50% inhibitory concentration (IC50) lay in the range of 0.01 to 0.1 µM.

On to `COC(=O)N1CCc2ccc3c(nc(N4CCCCC4)n3[C@H](C)Cc3cccc(C(=O)O)c3)c2C1` (single isomer, unassigned) [Compound 33], for which the IC50 lay within 0.001 to 0.01 µM.

Take `COC(=O)N1CCc2ccc3c(nc([C@@H]4CCC[C@@H](C(=O)O)C4)n3C[C@@H](C)c3ccc(F)c(F)c3)c2C1` (single isomer, unassigned) [Compound 148]: the IC50 lay within 0.001 to 0.01 µM.

As to `COC(=O)N1CCc2ccc3c(nc(C4CCCCC4)n3[C@H](C)C[C@@H]3CCCC[C@H]3C(=O)O)c2C1` [Compound 251], the IC50 lay within 0.01 to 0.1 µM.

As for `COC(=O)N1CCc2ccc3c(nc(N4CCNCC4)n3[C@@H](C)Cc3ccccc3)c2C1` [Compound 198], the IC50 was 0.01 to 0.1 µM.

As to `COC(=O)N1CCc2ccc3c(nc(C4CCCC4)n3C[C@@H](C(=O)O)c3ccccc3)c2C1` [Compound 205], the IC50 lay within 0.01 to 0.1 µM.

`COC(=O)N1CCc2ccc3c(nc([C@H]4CC[C@@H](C(=O)O)CC4)n3CC(NC(C)=O)c3ccccc3)c2C1` (stereo partly drawn) [Compound 248]: the IC50 was 0.01 to 0.1 µM.

As to `COC(=O)N1CCc2ccc3c(nc(C4CCCCC4)n3C[C@@H](O)c3cccc(C(=O)O)c3)c2C1` [Compound 199], the IC50 was in the range of 0.01 to 0.1 µM.

Consider `COC(=O)N1CCc2ccc3c(nc([C@H]4CC[C@](C)(C(=O)O)CC4)n3[C@@H](C)Cc3ccccc3)c2C1` [Compound 224], for which the IC50 lay in the range of 0.01 to 0.1 µM.

In the case of `COC(=O)N1CCc2ccc3c(nc(C4CCCCC4)n3CCc3ccccc3)c2C1` [Compound 170], the IC50 lay in the range of 0.001 to 0.01 µM.

With `COC(=O)N1CCc2ccc3c(nc([C@H]4CC[C@H](C(=O)O)CC4)n3[C@@H](C)Cc3cccc(F)c3F)c2C1` [Compound 71], the IC50 fell in the range of 0.001 to 0.01 µM.

On to `COC(=O)N1CCc2ccc3c(nc(C4CCCCC4)n3C[C@H](CC(=O)O)c3ccccc3)c2C1` [Compound 167], for which the IC50 was 0.001 to 0.01 µM.

Consider `COC(=O)N1CCc2cc(CC#N)c3c(nc([C@H]4CC[C@H](C(=O)O)CC4)n3CCc3ccccc3)c2C1` [Compound 118], for which the IC50 fell in the range of 0.001 to 0.01 µM.

For the compound `COC(=O)N1CCc2ccc3c(nc(N4CCCCC4)n3[C@@H](C)Cc3cccc(-c4nnn[nH]4)c3)c2C1` [Compound 108], the half-inhibitory concentration (IC50) lay within 0.001 to 0.01 µM.

For `COC(=O)N1CCc2ccc3c(nc([C@@H]4CCC[C@@H](C(=O)O)C4)n3[C@H](C)Cc3ccccc3Cl)c2C1` (single isomer, unassigned) [Compound 263], the IC50 is 0.01 to 0.1 µM.

For `COC(=O)N1CCc2ccc3c(nc([C@H]4CC[C@H](C(=O)O)CC4)n3[C@H](C)Cc3c(F)cccc3F)c2C1` [Compound 95], the half-maximal inhibitory concentration (IC50) was in the range of 0.001 to 0.01 µM.

`COC(=O)N1CCc2ccc3c(nc(N4CCC(C(=O)O)CC4)n3[C@@H](C)C(F)(F)c3ccccc3)c2C1` (single isomer, unassigned) [Compound 24]: the IC50 was 0.001 to 0.01 µM.

The record behind these values is US20250188079A1, “INHIBITING CYCLIC AMP-RESPONSIVE ELEMENT-BINDING PROTEIN (CREB)” (Forma Therapeutics, Inc., priority 2019, published 2025).
